According to patent publication US7300770B2, “Detection of microbe contamination on elastomeric articles” (Kimberly-Clark Worldwide, Inc., priority 2004, dated 2007):

Test system: P. aeruginosa
Experiment: Titration of microorganisms with Reichardt's dye on cellulosic towel
Conditions: Gram(-), 10^7 CFU/mL, 100 microliters

Structure (SMILES): [O-]c1c(-c2ccccc2)cc(-[n+]2c(-c3ccccc3)cc(-c3ccccc3)cc2-c2ccccc2)cc1-c1ccccc1 [Reichardt's dye, 4-(2,4,6-triphenylpyridinium-1-yl)-2,6-diphenylphenolate]
- Amount of Dye Required for Persistent Color: 80 µL
